Reference: patent publication US6355799B1, “Substituted benzene compounds, process for their preparation, and herbicidal and defoliant compositions containing them” (ISK Americas Incorporated, priority 1997, dated 2002)

Legend:
Assay type in all cases: in vivo
[1] = tested on: upland rice (Oryza sp., var. Tebonnet, RICE); test: Pre-emerge test, crop safety; conditions: for Pre-emerge phytotoxicity rating (0-100), crop damage, RICE: rated 14 days after application, 0 = no damage, 100 = complete death
Method in brief: (§1)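 Applied at 15–1000 g ai/ha from acetone in 187 l/ha spray volume. Post-emergence applications included 0.25% v/v non-ionic surfactant and reached plants sown 8–21 days before. Pre-emergence applications were incorporated by surface watering. Efficacy or crop damage was rated on a 0–100 scale after 14 days.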

[2] = tested on: field corn (Zea mays L., var. Dekalb 535, CORN); test: Pre-emerge test, crop safety; conditions: for Pre-emerge phytotoxicity rating (0-100), crop damage, CORN: rated 14 days after application, 0 = no damage, 100 = complete death
Method in brief: as §1

[3] = tested on: upland rice (Oryza sp., var. Tebonnet, RICE); test: Post-emerge test, crop safety; conditions: post-emerge; for phytotoxicity rating RICE: 14 days after application, rating scale 0-100; for Post-emerge Herbicidal Activity RICE: crop damage rating 0-100 at 14 days after application
Method in brief: (§2)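 Sandy loam pots; pre-emerge: sown 1 d pre-spray, surface-watered after, then bottom-watered. Post-emerge: sown 8–21 d before, 2–3 leaf stage, + 0.25% v/v NIS, bottom-watered. Acetone, 187 l/ha track spray, 15–1000 g ai/ha. 0–100 injury score, day 14.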

[4] = tested on: field corn (Zea mays L., var. Dekalb 535, CORN); test: Post-emerge test, crop safety; conditions: post-emerge; for phytotoxicity rating CORN: 14 days after application, rating scale 0-100; for Post-emerge Herbicidal Activity CORN: crop damage rating 0-100 at 14 days after application
Method in brief: as §2

[5] = tested on: ivyleaf morningglory (Ipomoea hederacea, IPOHE); test: Pre-emerge test, greenhouse herbicide activity screening; conditions: for Pre-emerge Herbicidal Activity, phytotoxicity rating (0-100), IPOHE: rated 14 days after application, 0 = no damage, 100 = complete death
Method in brief: as §2

[6] = tested on: green foxtail (Setaria viridis, SETVI); test: as above; conditions: for Pre-emerge Herbicidal Activity, phytotoxicity rating (0-100), SETVI: rated 14 days after application, 0 = no damage, 100 = complete death
Method in brief: as §2

[7] = tested on: barnyardgrass (Echinochloa crus-galli, ECHCG); test: as above; conditions: for Pre-emerge Herbicidal Activity, phytotoxicity rating (0-100), ECHCG: rated 14 days after application, 0 = no damage, 100 = complete death
Method in brief: as §2

[8] = tested on: large crabgrass (Digitaria sanguinalis, DIGSA); test: as above; conditions: for Pre-emerge Herbicidal Activity, phytotoxicity rating (0-100), DIGSA: rated 14 days after application, 0 = no damage, 100 = complete death
Method in brief: as §2

[9] = tested on: johnsongrass (Sorghum halepense, SORHA); test: as above; conditions: for Pre-emerge Herbicidal Activity, phytotoxicity rating (0-100), SORHA: rated 14 days after application, 0 = no damage, 100 = complete death
Method in brief: as §2

[10] = tested on: lambsquarters (Chenopodium album, CHEAL); test: as above; conditions: for Pre-emerge Herbicidal Activity, phytotoxicity rating (0-100), CHEAL: rated 14 days after application, 0 = no damage, 100 = complete death
Method in brief: as §2

[11] = tested on: velvetleaf (Abutilon theophrasti, ABUTH); test: as above; conditions: for Pre-emerge Herbicidal Activity, phytotoxicity rating (0-100), ABUTH: rated 14 days after application, 0 = no damage, 100 = complete death
Method in brief: as §2

[12] = tested on: sicklepod (Cassia obtusifolia, CASOB); test: as above; conditions: for Pre-emerge Herbicidal Activity, phytotoxicity rating (0-100), CASOB: rated 14 days after application, 0 = no damage, 100 = complete death
Method in brief: as §2

[13] = tested on: ivyleaf morningglory (Ipomoea hederacea, IPOHE); test: Post-emerge test, greenhouse herbicide activity screening; conditions: post-emerge; for phytotoxicity rating IPOHE: 14 days after application, rating scale 0-100; for Post-emerge Herbicidal Activity IPOHE: phytotoxicity rating 0-100 at 14 days after application
Method in brief: (§3)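 Fourteen days after spraying, crop and weed injury was graded visually from 0, no effect, to 100, every plant dead. Test substances were dissolved in acetone and applied at 15–1000 g ai/ha with a flat-fan nozzle. Application was either pre-emergence, one day after sowing, or post-emergence at the 2–3 leaf stage.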

[14] = tested on: green foxtail (Setaria viridis, SETVI); test: as above; conditions: post-emerge; for phytotoxicity rating SETVI: 14 days after application, rating scale 0-100; for Post-emerge Herbicidal Activity SETVI: phytotoxicity rating 0-100 at 14 days after application
Method in brief: as §3

[15] = tested on: barnyardgrass (Echinochloa crus-galli, ECHCG); test: as above; conditions: post-emerge; for phytotoxicity rating ECHCG: 14 days after application, rating scale 0-100; for Post-emerge Herbicidal Activity ECHCG: phytotoxicity rating 0-100 at 14 days after application
Method in brief: as §3

[16] = tested on: large crabgrass (Digitaria sanguinalis, DIGSA); test: as above; conditions: post-emerge; for phytotoxicity rating DIGSA: 14 days after application, rating scale 0-100; for Post-emerge Herbicidal Activity DIGSA: phytotoxicity rating 0-100 at 14 days after application
Method in brief: as §3

[17] = tested on: johnsongrass (Sorghum halepense, SORHA); test: as above; conditions: post-emerge; for phytotoxicity rating SORHA: 14 days after application, rating scale 0-100; for Post-emerge Herbicidal Activity SORHA: phytotoxicity rating 0-100 at 14 days after application
Method in brief: as §3

[18] = tested on: lambsquarters (Chenopodium album, CHEAL); test: as above; conditions: post-emerge; for phytotoxicity rating CHEAL: 14 days after application, rating scale 0-100; for Post-emerge Herbicidal Activity CHEAL: phytotoxicity rating 0-100 at 14 days after application
Method in brief: as §3

[19] = tested on: velvetleaf (Abutilon theophrasti, ABUTH); test: as above; conditions: post-emerge; for phytotoxicity rating ABUTH: 14 days after application, rating scale 0-100; for Post-emerge Herbicidal Activity ABUTH: phytotoxicity rating 0-100 at 14 days after application
Method in brief: as §3

[20] = tested on: sicklepod (Cassia obtusifolia, CASOB); test: as above; conditions: post-emerge; for phytotoxicity rating CASOB: 14 days after application, rating scale 0-100; for Post-emerge Herbicidal Activity CASOB: phytotoxicity rating 0-100 at 14 days after application
Method in brief: as §3

[21] = tested on: redroot pigweed (Amaranthus retroflexus, AMARE); test: as above; conditions: post-emerge; for phytotoxicity rating AMARE: 14 days after application, rating scale 0-100; for Post-emerge Herbicidal Activity AMARE: phytotoxicity rating 0-100 at 14 days after application
Method in brief: as §3

[22] = tested on: redroot pigweed (Amaranthus retroflexus, AMARE); test: Pre-emerge test, greenhouse herbicide activity screening; conditions: for Pre-emerge Herbicidal Activity, phytotoxicity rating (0-100), AMARE: rated 14 days after application, 0 = no damage, 100 = complete death
Method in brief: as §2

[23] = 250 g ai/ha, rating scale 0-100, 14 days after application
[24] = crop damage, pre-emerge, rate 63 g ai/ha, phytotoxicity rating 0-100 at 14 days after application
[25] = pre-emerge, rate 63 g ai/ha, phytotoxicity rating 0-100 at 14 days after application

COc1c(Cl)cc(F)c(-n2c(=O)cc(C(F)(F)F)n(C)c2=O)c1NC(=O)c1ccc2ccccc2c1 [2-75]
50: phytotoxicity rating ECHCG ([15]; 250 g ai/ha)
20: Pre-emerge Herbicidal Activity, phytotoxicity rating (0-100), IPOHE ([5]; 63 g ai/ha) | Pre-emerge Herbicidal Activity, phytotoxicity rating (0-100), ECHCG ([7]; 63 g ai/ha) | Pre-emerge Herbicidal Activity, phytotoxicity rating (0-100), SORHA ([9]; 63 g ai/ha) | phytotoxicity rating DIGSA ([16]; 250 g ai/ha) | phytotoxicity rating SORHA ([17]; 63 g ai/ha)
100: Pre-emerge Herbicidal Activity, phytotoxicity rating (0-100), SETVI ([6]; 63 g ai/ha) | Pre-emerge Herbicidal Activity, phytotoxicity rating (0-100), SETVI ([6]; 250 g ai/ha) | Pre-emerge Herbicidal Activity, phytotoxicity rating (0-100), ECHCG ([7]; 250 g ai/ha) | Pre-emerge Herbicidal Activity, phytotoxicity rating (0-100), DIGSA ([8]; 250 g ai/ha) | Pre-emerge Herbicidal Activity, phytotoxicity rating (0-100), CHEAL ([10]; 63 g ai/ha) | Pre-emerge Herbicidal Activity, phytotoxicity rating (0-100), CHEAL ([10]; 250 g ai/ha) | Pre-emerge Herbicidal Activity, phytotoxicity rating (0-100), ABUTH ([11]; 63 g ai/ha) | Pre-emerge Herbicidal Activity, phytotoxicity rating (0-100), ABUTH ([11]; 250 g ai/ha) | Pre-emerge Herbicidal Activity, phytotoxicity rating (0-100), CASOB ([12]; 63 g ai/ha) | Pre-emerge Herbicidal Activity, phytotoxicity rating (0-100), CASOB ([12]; 250 g ai/ha) | phytotoxicity rating IPOHE ([13]; 63 g ai/ha) | phytotoxicity rating IPOHE ([13]; 250 g ai/ha) | phytotoxicity rating CHEAL ([18]; 63 g ai/ha) | phytotoxicity rating CHEAL ([18]; 250 g ai/ha) | phytotoxicity rating ABUTH ([19]; 63 g ai/ha) | phytotoxicity rating ABUTH ([19]; 250 g ai/ha) | phytotoxicity rating CASOB ([20]; 63 g ai/ha) | phytotoxicity rating CASOB ([20]; 250 g ai/ha) | phytotoxicity rating AMARE ([21]; 63 g ai/ha) | phytotoxicity rating AMARE ([21]; 250 g ai/ha) | Pre-emerge Herbicidal Activity, phytotoxicity rating (0-100), AMARE ([22]; 63 g ai/ha) | Pre-emerge Herbicidal Activity, phytotoxicity rating (0-100), AMARE ([22]; 250 g ai/ha)
0: Pre-emerge phytotoxicity rating (0-100), crop damage, CORN ([2]; 63 g ai/ha) | Pre-emerge phytotoxicity rating (0-100), crop damage, CORN ([2]; 250 g ai/ha) | phytotoxicity rating DIGSA ([16]; 63 g ai/ha)
60: Pre-emerge Herbicidal Activity, phytotoxicity rating (0-100), IPOHE ([5]; 250 g ai/ha) | Pre-emerge Herbicidal Activity, phytotoxicity rating (0-100), SORHA ([9]; 250 g ai/ha)
80: Pre-emerge phytotoxicity rating (0-100), crop damage, RICE ([1]; 250 g ai/ha) | phytotoxicity rating RICE ([3]; 250 g ai/ha) | phytotoxicity rating SETVI ([14]; 250 g ai/ha)
10: phytotoxicity rating CORN ([4]; 63 g ai/ha) | phytotoxicity rating ECHCG ([15]; 63 g ai/ha)
40: phytotoxicity rating SORHA ([17]; 250 g ai/ha)
15: phytotoxicity rating CORN ([4]; 250 g ai/ha)
70: phytotoxicity rating RICE ([3]; 63 g ai/ha) | Pre-emerge Herbicidal Activity, phytotoxicity rating (0-100), DIGSA ([8]; 63 g ai/ha)
30: Pre-emerge phytotoxicity rating (0-100), crop damage, RICE ([1]; 63 g ai/ha) | phytotoxicity rating SETVI ([14]; 63 g ai/ha)

Nc1c(O)c(Cl)cc(F)c1N1C(=O)C2CCCCN2C1=S (single isomer, unassigned) [12-2]
80: Post-emerge Herbicidal Activity RICE ([3]; 250 g ai/ha) | Post-emerge Herbicidal Activity ECHCG ([15]; 250 g ai/ha)
99: Pre-emerge phytotoxicity rating, crop damage RICE [1, 23] | Pre-emerge phytotoxicity rating, crop damage CORN [2, 23] | Pre-emerge herbicidal activity, phytotoxicity rating ECHCG [7, 23] | Pre-emerge Herbicidal Activity CASOB [12, 25]
90: Pre-emerge Herbicidal Activity SORHA [9, 25] | Post-emerge Herbicidal Activity IPOHE ([13]; 63 g ai/ha) | Post-emerge Herbicidal Activity SORHA ([17]; 250 g ai/ha)
30: Post-emerge Herbicidal Activity ECHCG ([15]; 63 g ai/ha) | Post-emerge Herbicidal Activity AMARE ([21]; 63 g ai/ha)
95: Pre-emerge Herbicidal Activity IPOHE [5, 25] | Pre-emerge Herbicidal Activity SETVI [6, 25] | Pre-emerge Herbicidal Activity DIGSA [8, 25] | Post-emerge Herbicidal Activity CASOB ([20]; 250 g ai/ha)
50: Pre-emerge Herbicidal Activity RICE [1, 24] | Post-emerge Herbicidal Activity SETVI ([14]; 250 g ai/ha) | Post-emerge Herbicidal Activity CASOB ([20]; 63 g ai/ha)
20: Post-emerge Herbicidal Activity RICE ([3]; 63 g ai/ha)
0: Post-emerge Herbicidal Activity SETVI ([14]; 63 g ai/ha) | Post-emerge Herbicidal Activity DIGSA ([16]; 63 g ai/ha)
40: Pre-emerge Herbicidal Activity CORN [2, 24] | Pre-emerge Herbicidal Activity ECHCG [7, 25]
10: Post-emerge Herbicidal Activity CORN ([4]; 63 g ai/ha) | Post-emerge Herbicidal Activity SORHA ([17]; 63 g ai/ha)
70: Post-emerge Herbicidal Activity DIGSA ([16]; 250 g ai/ha)
100: Post-emerge Herbicidal Activity CORN ([4]; 250 g ai/ha) | Pre-emerge herbicidal activity, phytotoxicity rating IPOHE [5, 23] | Pre-emerge herbicidal activity, phytotoxicity rating SETVI [6, 23] | Pre-emerge herbicidal activity, phytotoxicity rating DIGSA [8, 23] | Pre-emerge herbicidal activity, phytotoxicity rating SORHA [9, 23] | Pre-emerge herbicidal activity, phytotoxicity rating CHEAL [10, 23] | Pre-emerge Herbicidal Activity CHEAL [10, 25] | Pre-emerge herbicidal activity, phytotoxicity rating ABUTH [11, 23] | Pre-emerge Herbicidal Activity ABUTH [11, 25] | Pre-emerge herbicidal activity, phytotoxicity rating CASOB [12, 23] | Post-emerge Herbicidal Activity IPOHE ([13]; 250 g ai/ha) | Post-emerge Herbicidal Activity CHEAL ([18]; 63 g ai/ha) | Post-emerge Herbicidal Activity CHEAL ([18]; 250 g ai/ha) | Post-emerge Herbicidal Activity ABUTH ([19]; 63 g ai/ha) | Post-emerge Herbicidal Activity ABUTH ([19]; 250 g ai/ha) | Post-emerge Herbicidal Activity AMARE ([21]; 250 g ai/ha) | Pre-emerge herbicidal activity, phytotoxicity rating AMARE [22, 23] | Pre-emerge Herbicidal Activity AMARE [22, 25]
